Test results reported in PubChem BioAssay AID1963962 (Molecular Pharmacology Branch, DTP, NCI, 2024).

Test system: 967376-340-R-J2-PDC multicell spheroid viability
Assay: Anticancer human tumor 967376-340-R-J2-PDC patient-derived colon adenocarcinoma cell line growth inhibition [PI3K]
Details: for IC50: curve of first compound; for viability, T/C: stronger effect = lower value
Source text: Combinatorial screen of targeted agents with the PI3K inhibitors inavolisib, alpelisib, duvelisib, and copanlisib in multi-cell type tumor spheroids
A high-throughput screen of multi-cell type tumor spheroids was designed to identify active combinations of targeted small molecules and PI3K pathway inhibitors. Complex spheroids include a stromal component modeled by human endothelial cells (HUVEC) and fibroblasts modeled by human mesenchymal stem cells (MSCs). The concentration ranges selected for each drug and investigational agent were based upon clinically achievable concentrations if the clinical Cmax of the agent was known.
Compounds. The drugs and investigational agents: inavolisib (NSC800729), alpelisib (NSC765974), duvelisib (NSC772469), copanlisib (NSC816437), ipatasertib (NSC767898), afuresertib (NSC778305), talazoparib (NSC767125), sapanisertib (NSC764658), selumetinib (NSC741078), tovorafenib (DAY101, NSC766906), vemurafenib (NSC761431), ravoxertinib (NSC781343), sotorasib (NSC818433), MRTX1133 (NSC 836407), abemaciclib (NSC 768073), palbociclib (NSC758247), venetoclax (NSC 766270), SY5609 (NSC837396), enzalutamide (NSC755605), and darolutamide (NSC825331), were obtained from the National Cancer Institute (NCI) Developmental Therapeutics Program Chemical Repository. The FDA-approved anticancer drug set is available from the NCI Developmental Therapeutics Program. […] The stock solutions were prepared in dimethyl sulfoxide (DMSO, Sigma-Aldrich, St. Louis, MO, cat. D2650) at 800-fold the tested concentration and stored at -70 degrees C prior to their use. All drugs and investigational agents were tested over a range starting from a high concentration at or near the clinical Cmax and decreasing in half-log increments. If the clinical Cmax for an agent had not been determined, the highest concentration tested was 10 microM.
Cell Culture. All cells were maintained in an incubator at 37 degrees C and 5% CO2 with 95% humidity. The PDC lines were cultured according to standard operating procedures established by the NCI PDMR (https://pdmr.cancer.gov/sops/default.htm). All PDCs were thawed and cultured in Matrigel-coated flasks prepared with a working solution of 1X Ham's F-12 nutrient mix, without supplementation (Invitrogen, Waltham, MA, cat. 11765054), 100 U/mL penicillin-streptomycin (Invitrogen, cat. 15140122), and 2.5% Matrigel (Corning Inc., Corning, NY, cat. 354248) for the first three passages. The 354836-022-R-J1-PDC, 475296-252-R-J1-PDC, and 997726-040-R-J2-PDC lines were cultured in 6A media, which includes advanced DMEM/F-12 (Thermo Fisher Scientific, cat. 12634028), 10 mM HEPES (Thermo Fisher Scientific, cat. 15630080), 1X GlutaMAX supplement (Thermo Fisher Scientific, cat. 35050061), 0.1 mg/mL primocin (InvivoGen, San Diego, CA, cat. ant-pm-2), 10% defined fetal bovine serum, heat inactivated (HyClone Laboratories Inc., Logan, UT, cat. SH30070.03HI), 50% L-WRN conditioned media (ATCC, cat. CRL-3276), 1.25 mM N-Acetyl-L-cysteine (Sigma-Aldrich, cat. A9165), 10 mM nicotinamide (Sigma-Aldrich, cat. N0636), 1X B-27 supplement (Thermo Fisher Scientific, cat. 17504044), 1X N-2 supplement (Thermo Fisher Scientific, cat. 17502048), and 10 microM Y-27632 dihydrochloride (Tocris Bioscience, Bristol, United Kingdom, cat. 1254). The 624824-186-R-J2-PDC line was cultured in 6C/Colon 1B media, which includes all 6A media components plus 50 ng/mL human EGF recombinant protein (Thermo Fisher Scientific, cat. PHG0311). […]

[1] = second compound 0.00316 µM, first compound 0.0316 µM
[2] = second compound 0.00316 µM, first compound 0.1 µM
[3] = second compound 0.00316 µM, first compound 0.316 µM
[4] = second compound 0.00316 µM, first compound 1 µM
[5] = second compound 0.00316 µM, first compound 3.16 µM
[6] = second compound 0.00316 µM, first compound 10 µM
[7] = second compound 0.01 µM, first compound 0.0316 µM
[8] = second compound 0.01 µM, first compound 0.1 µM
[9] = second compound 0.01 µM, first compound 0.316 µM
[10] = second compound 0.01 µM, first compound 1 µM
[11] = second compound 0.01 µM, first compound 3.16 µM
[12] = second compound 0.01 µM, first compound 10 µM
[13] = second compound 0.0316 µM, first compound 0.0316 µM
[14] = second compound 0.0316 µM, first compound 0.1 µM
[15] = second compound 0.0316 µM, first compound 0.316 µM
[16] = second compound 0.0316 µM, first compound 1 µM
[17] = second compound 0.0316 µM, first compound 3.16 µM
[18] = second compound 0.0316 µM, first compound 10 µM
[19] = second compound 0.1 µM, first compound 0.0316 µM
[20] = second compound 0.1 µM, first compound 0.1 µM
[21] = second compound 0.1 µM, first compound 0.316 µM
[22] = second compound 0.1 µM, first compound 1 µM
[23] = second compound 0.1 µM, first compound 3.16 µM
[24] = second compound 0.1 µM, first compound 10 µM
[25] = second compound 0.316 µM, first compound 0.0316 µM
[26] = second compound 0.316 µM, first compound 0.1 µM
[27] = second compound 0.316 µM, first compound 0.316 µM
[28] = second compound 0.316 µM, first compound 1 µM
[29] = second compound 0.316 µM, first compound 3.16 µM
[30] = second compound 0.316 µM, first compound 10 µM
[31] = second compound 1 µM, first compound 0.0316 µM
[32] = second compound 1 µM, first compound 0.1 µM
[33] = second compound 1 µM, first compound 0.316 µM
[34] = second compound 1 µM, first compound 1 µM
[35] = second compound 1 µM, first compound 3.16 µM
[36] = second compound 1 µM, first compound 10 µM
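Note: spheroids exposed to agents for 7 days before read-out.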
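Throughout, for viability, T/C: luminescence used as surrogate of cell viability.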

Structure (SMILES): CC(C)NCC(C(=O)N1CCN(c2ncnc3c2C(C)CC3O)CC1)c1ccc(Cl)cc1 (stereo unspecified) + CC(Nc1ccc2c(c1)OCCn1cc(N3C(=O)OCC3C(F)F)nc1-2)C(N)=O
- IC50 (second compound 0.00316 µM): > 10 µM
- IC50 (second compound 0.01 µM): > 10 µM
- IC50 (second compound 0.0316 µM): > 10 µM
- IC50 (second compound 0.1 µM): > 10 µM
- IC50 (second compound 0.316 µM): > 10 µM
- IC50 (second compound 1 µM): 7.61 µM
- viability, T/C [1]: 98.4%
- viability, T/C [2]: 118%
- viability, T/C [3]: 71.2%
- viability, T/C [4]: 76.8%
- viability, T/C [5]: 91.9%
- viability, T/C [6]: 77.9%
- viability, T/C [7]: 79.3%
- viability, T/C [8]: 86.5%
- viability, T/C [9]: 74.4%
- viability, T/C [10]: 84.7%
- viability, T/C [11]: 83.4%
- viability, T/C [12]: 81.2%
- viability, T/C [13]: 68.5%
- viability, T/C [14]: 90.4%
- viability, T/C [15]: 59.4%
- viability, T/C [16]: 77.1%
- viability, T/C [17]: 73.5%
- viability, T/C [18]: 60.9%
- viability, T/C [19]: 60.1%
- viability, T/C [20]: 82%
- viability, T/C [21]: 68.6%
- viability, T/C [22]: 72.4%
- viability, T/C [23]: 83.9%
- viability, T/C [24]: 64%
- viability, T/C [25]: 57.5%
- viability, T/C [26]: 60.7%
- viability, T/C [27]: 57.6%
- viability, T/C [28]: 65.5%
- viability, T/C [29]: 57.8%
- viability, T/C [30]: 62.8%
- viability, T/C [31]: 51.4%
- viability, T/C [32]: 59.2%
- viability, T/C [33]: 67.6%
- viability, T/C [34]: 60.8%
- viability, T/C [35]: 57.3%
- viability, T/C [36]: 37.2%

Structure (SMILES): CCN1CCN(Cc2ccc(Nc3ncc(F)c(-c4cc(F)c5nc(C)n(C(C)C)c5c4)n3)nc2)CC1 + CC(Nc1ccc2c(c1)OCCn1cc(N3C(=O)OCC3C(F)F)nc1-2)C(N)=O
- IC50 (second compound 0.00316 µM): > 1 µM
- IC50 (second compound 0.01 µM): > 1 µM
- IC50 (second compound 0.0316 µM): > 1 µM
- IC50 (second compound 0.1 µM): 0.793 µM
- IC50 (second compound 0.316 µM): 0.109 µM
- IC50 (second compound 1 µM): 0.0551 µM
- viability, T/C (second compound 0.00316 µM, first compound 0.00316 µM): 94.2%
- viability, T/C (second compound 0.00316 µM, first compound 0.01 µM): 73.2%
- viability, T/C [1]: 86.9%
- viability, T/C [2]: 75.2%
- viability, T/C [3]: 80.9%
- viability, T/C [4]: 70.5%
- viability, T/C (second compound 0.01 µM, first compound 0.00316 µM): 94.9%
- viability, T/C (second compound 0.01 µM, first compound 0.01 µM): 74.8%
- viability, T/C [7]: 71.4%
- viability, T/C [8]: 93.2%
- viability, T/C [9]: 69.5%
- viability, T/C [10]: 67.7%
- viability, T/C (second compound 0.0316 µM, first compound 0.00316 µM): 77.6%
- viability, T/C (second compound 0.0316 µM, first compound 0.01 µM): 81.3%
- viability, T/C [13]: 79.2%
- viability, T/C [14]: 86.8%
- viability, T/C [15]: 63.4%
- viability, T/C [16]: 52.3%
- viability, T/C (second compound 0.1 µM, first compound 0.00316 µM): 62.7%
- viability, T/C (second compound 0.1 µM, first compound 0.01 µM): 64.6%
- viability, T/C [19]: 69.8%
- viability, T/C [20]: 65.1%
- viability, T/C [21]: 47.3%
- viability, T/C [22]: 51.3%
- viability, T/C (second compound 0.316 µM, first compound 0.00316 µM): 62.7%
- viability, T/C (second compound 0.316 µM, first compound 0.01 µM): 54.9%
- viability, T/C [25]: 57.4%
- viability, T/C [26]: 47.5%
- viability, T/C [27]: 48.6%
- viability, T/C [28]: 42.5%
- viability, T/C (second compound 1 µM, first compound 0.00316 µM): 59.4%
- viability, T/C (second compound 1 µM, first compound 0.01 µM): 52.2%
- viability, T/C [31]: 54.2%
- viability, T/C [32]: 49.3%
- viability, T/C [33]: 35.5%
- viability, T/C [34]: 26%

Structure (SMILES): Cn1ncc(Cl)c1-c1cc(C(=O)NC(CN)Cc2cccc(F)c2)sc1Cl (stereo unspecified) + CC(Nc1ccc2c(c1)OCCn1cc(N3C(=O)OCC3C(F)F)nc1-2)C(N)=O
- IC50 (second compound 0.00316 µM): > 10 µM
- IC50 (second compound 0.01 µM): > 10 µM
- IC50 (second compound 0.0316 µM): > 10 µM
- IC50 (second compound 0.1 µM): > 10 µM
- IC50 (second compound 0.316 µM): > 10 µM
- IC50 (second compound 1 µM): 4.19 µM
- viability, T/C [1]: 102%
- viability, T/C [2]: 94.4%
- viability, T/C [3]: 86.6%
- viability, T/C [4]: 75%
- viability, T/C [5]: 71%
- viability, T/C [6]: 61.3%
- viability, T/C [7]: 92.3%
- viability, T/C [8]: 93.3%
- viability, T/C [9]: 90.8%
- viability, T/C [10]: 67.1%
- viability, T/C [11]: 67.8%
- viability, T/C [12]: 71.3%
- viability, T/C [13]: 91.2%
- viability, T/C [14]: 98%
- viability, T/C [15]: 75.2%
- viability, T/C [16]: 83.2%
- viability, T/C [17]: 67.4%
- viability, T/C [18]: 55.8%
- viability, T/C [19]: 83.5%
- viability, T/C [20]: 72.5%
- viability, T/C [21]: 87.7%
- viability, T/C [22]: 65%
- viability, T/C [23]: 55.8%
- viability, T/C [24]: 57.8%
- viability, T/C [25]: 68%
- viability, T/C [26]: 66.9%
- viability, T/C [27]: 59.2%
- viability, T/C [28]: 67.8%
- viability, T/C [29]: 59.9%
- viability, T/C [30]: 45.9%
- viability, T/C [31]: 63.1%
- viability, T/C [32]: 49.3%
- viability, T/C [33]: 53.9%
- viability, T/C [34]: 68.1%
- viability, T/C [35]: 53.9%
- viability, T/C [36]: 38.5%
